# Target: T1, Amine oxidase [flavin-containing] B (Rattus norvegicus, UniProt P19643)
# T1 sequence (P19643 whole entry): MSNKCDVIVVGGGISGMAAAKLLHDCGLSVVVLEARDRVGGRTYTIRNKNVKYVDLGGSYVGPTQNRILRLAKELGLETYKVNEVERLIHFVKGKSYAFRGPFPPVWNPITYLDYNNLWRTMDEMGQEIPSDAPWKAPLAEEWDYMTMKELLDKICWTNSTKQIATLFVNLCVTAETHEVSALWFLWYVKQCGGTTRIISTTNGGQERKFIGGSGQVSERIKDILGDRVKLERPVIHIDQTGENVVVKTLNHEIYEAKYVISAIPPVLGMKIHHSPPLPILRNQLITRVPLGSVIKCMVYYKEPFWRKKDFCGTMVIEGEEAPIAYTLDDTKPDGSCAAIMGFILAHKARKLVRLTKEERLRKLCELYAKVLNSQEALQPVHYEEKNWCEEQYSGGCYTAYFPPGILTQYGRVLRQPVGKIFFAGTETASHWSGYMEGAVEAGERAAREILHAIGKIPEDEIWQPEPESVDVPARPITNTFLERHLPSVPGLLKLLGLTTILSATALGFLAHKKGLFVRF
# Experiment: Enzyme Assay
# Settings: 37 °C
# Method: MAO-B activity was measured by the spectrofluorimetric method of Morinan and Garratt.
row,Structure (SMILES),IC50 [µM]
1,"Cc1nc(-c2ccccc2)sc1C(=O)CCN1CCCCC1 [Thiazolyl derivative, 3]",43.1
2,"O=C(CN1CCCCC1)Nc1nc(-c2ccccc2)cs1 [Thiazolyl derivative, 9]",90.2
3,"COc1ccc(-c2csc(NC(=O)CN3CCCCC3)n2)cc1 [Thiazolyl derivative, 10]",411
4,"COc1ccc(-c2csc(NC(=O)CCN3CCCCC3)n2)cc1 [Thiazolyl derivative, 11]",313

# Further lines, results first:
row,IC50 [µM],Structure (SMILES)
1,82.3,"CCN(CC)CCC(=O)c1sc(NC)nc1C [Thiazolyl derivative, 1]"
2,7.5,"CCN(CC)CCC(=O)c1sc(-c2ccc(C)cc2)nc1C [Thiazolyl derivative, 2]"
3,7.8,"Cc1nc(-c2ccccc2)sc1C(=O)CCN1CCOCC1 [Thiazolyl derivative, 4]"

# Reference: BindingDB's records for doi:10.3109/14756369909030324 (University of Catania, 1999)
